Test results published in PubChem BioAssay (NCI).
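Cultured in 96-well plates, cells were exposed to test compound for 48 hours across five concentrations. GI50 marks 50% less growth. TGI marks complete inhibition of growth.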

Assays:
Experiment in all cases: DTP human tumour cell line panel, 48 h
MDA-MB-231 breast = system: MDA-MB-231 breast
UO-31 renal = system: UO-31 renal
TK-10 renal = system: TK-10 renal
RPMI-8226 leukemia = system: RPMI-8226 leukemia
OVCAR-8 ovarian = system: OVCAR-8 ovarian
SK-MEL-28 melanoma = system: SK-MEL-28 melanoma
SF-539 CNS = system: SF-539 CNS
UACC-62 melanoma = system: UACC-62 melanoma
LOX IMVI melanoma = system: LOX IMVI melanoma
BT-549 breast = system: BT-549 breast
T-47D breast = system: T-47D breast
SW-620 colon = system: SW-620 colon
MCF7 breast = system: MCF7 breast
OVCAR-4 ovarian = system: OVCAR-4 ovarian
CAKI-1 renal = system: CAKI-1 renal
HT29 colon = system: HT29 colon
OVCAR-5 ovarian = system: OVCAR-5 ovarian
HOP-92 NSCLC = system: HOP-92 NSCLC
OVCAR-3 ovarian = system: OVCAR-3 ovarian
NCI-H522 lung = system: NCI-H522 lung
786-0 renal = system: 786-0 renal
HS 578T breast = system: HS 578T breast
U251 CNS = system: U251 CNS
HOP-62 NSCLC = system: HOP-62 NSCLC
SR leukemia = system: SR leukemia
A498 renal = system: A498 renal
MDA-MB-435 = system: MDA-MB-435
NCI-H23 lung = system: NCI-H23 lung
UACC-257 melanoma = system: UACC-257 melanoma
HCT-116 colon = system: HCT-116 colon
MDA-MB-468 breast = system: MDA-MB-468 breast
NCI-H226 lung = system: NCI-H226 lung
HCT-15 colon = system: HCT-15 colon
MOLT-4 leukemia = system: MOLT-4 leukemia
A549 NSCLC = system: A549 NSCLC
NCI-H460 lung = system: NCI-H460 lung
MALME-3M melanoma = system: MALME-3M melanoma
HCC-2998 colon = system: HCC-2998 colon
HL-60(TB) leukemia = system: HL-60(TB) leukemia
SF-268 CNS = system: SF-268 CNS
SNB-75 CNS = system: SNB-75 CNS
KM12 colon = system: KM12 colon
CCRF-CEM leukemia = system: CCRF-CEM leukemia
NCI/ADR-RES ovarian = system: NCI/ADR-RES ovarian
RXF 393 renal = system: RXF 393 renal
SK-OV-3 ovarian = system: SK-OV-3 ovarian
SN12C renal = system: SN12C renal
SF-295 CNS = system: SF-295 CNS
SK-MEL-5 melanoma = system: SK-MEL-5 melanoma
IGROV1 ovarian = system: IGROV1 ovarian
SNB-19 CNS = system: SNB-19 CNS
COLO 205 colon = system: COLO 205 colon
M14 melanoma = system: M14 melanoma
PC-3 prostate = system: PC-3 prostate
SK-MEL-2 melanoma = system: SK-MEL-2 melanoma
EKVX NSCLC = system: EKVX NSCLC
ACHN renal = system: ACHN renal
K-562 leukemia = system: K-562 leukemia
DU-145 prostate = system: DU-145 prostate

`O=C(NO)c1ccc(CN2CCN(c3nc(-c4ccccc4)c4ccccc4n3)CC2)cc1` was tested, and the GI50 (MDA-MB-231 breast) was 3.4 µM, the TGI (MDA-MB-231 breast) was 11 µM and the GI50 (UO-31 renal) was 3 µM. For the same compound, the TGI (UO-31 renal) was 7.24 µM, the GI50 (TK-10 renal) was 7.04 µM and the TGI (TK-10 renal) was > 23.7 µM. The GI50 (RPMI-8226 leukemia) was 5.6 µM, the TGI (RPMI-8226 leukemia) was > 23.7 µM and the GI50 (OVCAR-8 ovarian) was 4.78 µM. The TGI (OVCAR-8 ovarian) was 12.9 µM, the GI50 (SK-MEL-28 melanoma) was 6.83 µM and the TGI (SK-MEL-28 melanoma) was > 23.7 µM. The GI50 (SF-539 CNS) was 3.97 µM, the TGI (SF-539 CNS) was 7.92 µM and the GI50 (UACC-62 melanoma) was 3.74 µM. It also gave a TGI (UACC-62 melanoma) of 8.28 µM, a GI50 (LOX IMVI melanoma) of 2.97 µM and a TGI (LOX IMVI melanoma) of 6.12 µM. The GI50 (BT-549 breast) was 8.64 µM, the TGI (BT-549 breast) was > 23.7 µM and the GI50 (T-47D breast) was 6.05 µM. It also gave a TGI (T-47D breast) of 23.2 µM, a GI50 (SW-620 colon) of 4.8 µM and a TGI (SW-620 colon) of 15.1 µM. It also gave a GI50 (MCF7 breast) of 4.4 µM, a TGI (MCF7 breast) of 23.4 µM and a GI50 (OVCAR-4 ovarian) of 4.3 µM. For the same compound, the TGI (OVCAR-4 ovarian) was > 23.7 µM, the GI50 (CAKI-1 renal) was 5.15 µM and the TGI (CAKI-1 renal) was 20.2 µM. For the same compound, the GI50 (HT29 colon) was 5.75 µM, the TGI (HT29 colon) was > 23.7 µM and the GI50 (OVCAR-5 ovarian) was 4.61 µM. The TGI (OVCAR-5 ovarian) was 12.4 µM, the GI50 (HOP-92 NSCLC) was 5.02 µM and the TGI (HOP-92 NSCLC) was 21.6 µM. It also gave a GI50 (OVCAR-3 ovarian) of 4.32 µM, a TGI (OVCAR-3 ovarian) of 15.1 µM and a GI50 (NCI-H522 lung) of 4.57 µM. For the same compound, the TGI (NCI-H522 lung) was 14.1 µM, the GI50 (786-0 renal) was 5.81 µM and the TGI (786-0 renal) was 19.1 µM. The GI50 (HS 578T breast) was 7.85 µM, the TGI (HS 578T breast) was > 23.7 µM and the GI50 (U251 CNS) was 6.19 µM. The TGI (U251 CNS) was > 23.7 µM, the GI50 (HOP-62 NSCLC) was 8.88 µM and the TGI (HOP-62 NSCLC) was > 23.7 µM. The GI50 (SR leukemia) was > 23.7 µM, the TGI (SR leukemia) was > 23.7 µM and the GI50 (A498 renal) was 8.03 µM. For the same compound, the TGI (A498 renal) was > 23.7 µM, the GI50 (MDA-MB-435) was 6.64 µM and the TGI (MDA-MB-435) was > 23.7 µM. It also gave a GI50 (NCI-H23 lung) of 3.67 µM, a TGI (NCI-H23 lung) of 7.89 µM and a GI50 (UACC-257 melanoma) of 6.94 µM. For the same compound, the TGI (UACC-257 melanoma) was > 23.7 µM, the GI50 (HCT-116 colon) was 2.95 µM and the TGI (HCT-116 colon) was 20.2 µM. For the same compound, the GI50 (MDA-MB-468 breast) was 2.74 µM, the TGI (MDA-MB-468 breast) was 7.23 µM and the GI50 (NCI-H226 lung) was 4.09 µM. It also gave a TGI (NCI-H226 lung) of 13.3 µM, a GI50 (HCT-15 colon) of 1.08 µM and a TGI (HCT-15 colon) of 7.77 µM. The GI50 (MOLT-4 leukemia) was 5.59 µM, the TGI (MOLT-4 leukemia) was > 23.7 µM and the GI50 (A549 NSCLC) was 4.57 µM. For the same compound, the TGI (A549 NSCLC) was 11.5 µM, the GI50 (NCI-H460 lung) was 3.66 µM and the TGI (NCI-H460 lung) was 8.5 µM. It also gave a GI50 (MALME-3M melanoma) of 5.2 µM, a TGI (MALME-3M melanoma) of 18.3 µM and a GI50 (HCC-2998 colon) of 4.03 µM. The TGI (HCC-2998 colon) was 9.97 µM, the GI50 (HL-60(TB) leukemia) was 6.99 µM and the TGI (HL-60(TB) leukemia) was > 23.7 µM. For the same compound, the GI50 (SF-268 CNS) was 6.59 µM, the TGI (SF-268 CNS) was 20.7 µM and the GI50 (SNB-75 CNS) was 3.76 µM. The TGI (SNB-75 CNS) was > 23.7 µM, the GI50 (KM12 colon) was 7.77 µM and the TGI (KM12 colon) was > 23.7 µM. The GI50 (CCRF-CEM leukemia) was 2.89 µM, the TGI (CCRF-CEM leukemia) was > 23.7 µM and the GI50 (NCI/ADR-RES ovarian) was 3.24 µM. The TGI (NCI/ADR-RES ovarian) was 7.86 µM, the GI50 (RXF 393 renal) was 2.9 µM and the TGI (RXF 393 renal) was 8.53 µM. The GI50 (SK-OV-3 ovarian) was 5.61 µM, the TGI (SK-OV-3 ovarian) was 13.5 µM and the GI50 (SN12C renal) was 5.65 µM. The TGI (SN12C renal) was 19.4 µM, the GI50 (SF-295 CNS) was 4.5 µM and the TGI (SF-295 CNS) was 11 µM. It also gave a GI50 (SK-MEL-5 melanoma) of 3.67 µM, a TGI (SK-MEL-5 melanoma) of 6.91 µM and a GI50 (IGROV1 ovarian) of 4.55 µM. For the same compound, the TGI (IGROV1 ovarian) was 11 µM, the GI50 (SNB-19 CNS) was 6.27 µM and the TGI (SNB-19 CNS) was > 23.7 µM. For the same compound, the GI50 (COLO 205 colon) was 5.13 µM, the TGI (COLO 205 colon) was 12.3 µM and the GI50 (M14 melanoma) was 6.26 µM. The TGI (M14 melanoma) was > 23.7 µM, the GI50 (PC-3 prostate) was 4.18 µM and the TGI (PC-3 prostate) was > 23.7 µM. For the same compound, the GI50 (SK-MEL-2 melanoma) was 7.78 µM, the TGI (SK-MEL-2 melanoma) was > 23.7 µM and the GI50 (EKVX NSCLC) was 4.94 µM. It also gave a TGI (EKVX NSCLC) of 11.8 µM, a GI50 (ACHN renal) of 4.06 µM and a TGI (ACHN renal) of 10.2 µM. For the same compound, the GI50 (K-562 leukemia) was 5.8 µM, the TGI (K-562 leukemia) was > 23.7 µM and the GI50 (DU-145 prostate) was 5.63 µM. For the same compound, the TGI (DU-145 prostate) was 17 µM.
